{
  "source": "patent US20080167272A1",
  "about": "“Thalidomide metabolites and methods of use” (Auckland Uniservices Limited, priority 2005, published 2008)",
  "key": {"TNF [1]": {"tested_on": "TNF", "assay": "Modulation of TNF production in Colon 38 tumour-bearing mice (serum and tumour, ELISA)", "type": "in vivo", "settings": "3 h", "experimental": "Mice with Colon 38 tumours, approximately 5-7 mm in diameter, were divided into groups of 5. One group was untreated. Other groups were treated with DMXAA (25 mg/kg) alone; DMXAA (25 mg/kg)+thalidomide (100 mg/kg), DMXAA (25 mg/kg)+PG (100 mg/kg), DMXAA (25 mg/kg)+PiG (100 mg/kg), DMXAA (25 mg/kg)+CG (100 mg/kg), DMXAA (25 mg/kg)+thalidomide (20 mg/kg), DMXAA (25 mg/kg)+CG (20 mg/kg), and thalidomide, PG, PiG or CG only at 100 and 200 mg/kg. Three hours after treatment, mice were anaesthetized with halothane (NZ Pharmacology Ltd., Christchurch, New Zealand), and blood was collected from the ocular sinus and tumours were excised. Blood was coagulated overnight at 4° C., and then centrifuged for 30 min at 2,000×g and 4° C., and the serum was removed and stored at −80° C. until use. Tumour tissues were weighed and homogenized in 1.5 ml α-minimal essential medium (Gibco, Grand Island, N.Y., USA). The homogenates were centrifuged (2,000×g, 30 min, 4° C.) and supernatant was removed and re-centrifuged (14,000×g, 30 min, 4° C.). The final supernatants were removed and kept at −80° C. until use. TNF levels in serum and supernatants derived from tumour homogenates were assayed for TNF as described in section 4 (below).\n(§1) TNF was assayed using a commercially available ELISA kit (OpEIA human or murine TNF kit, PharMingen, San Diego, Calif., USA), according to the manufacturer's instructions. Briefly, samples (100 μl/well) in duplicate together with a serial dilution of TNF (31.25-2000 pg/ml) for the standard curve, were added to flat-bottom 96-well plates pre-coated with immobilised monoclonal anti-TNF antibody and incubated at room temperature for 2 h. The wells were then washed, biotinylated polyclonal antibody to TNF was added, followed by peroxidase-labelled streptavidin, and incubated at room temperature for 1 h. The wells were washed again, and the substrate, tetramethylbenzidine and hydrogen peroxide was added and after 10 min the reaction was stopped with 2 N sulphuric acid. The absorbance at 450 nm was determined using a microtitre plate reader."}, "TNF [2]": {"tested_on": "TNF", "assay": "LPS-induced TNF production by HPBL in culture", "type": "cell-based, human", "settings": "HPBL, LPS 100 pg/ml, 12 h; all concentrations tested (PG, PiG: 1, 5, 25 μg/ml); FIG. 5", "experimental": "Blood (20 ml) each from seven healthy volunteers was collected into heparinized tubes, and was overlayed on top of 10 ml of Ficoll-Paque Plus (Amersham Biosciences AB, Uppsala, Sweden) in 50 ml Falcon polypropylene conical tubes (Becton Dickson Labware, Franklin Lakes, N.J.). The tubes were centrifuged for 30 min at 300×g and 4° C., and the layer of cells was removed and re-suspended at 1×10^6 cells/ml in A-MEM medium supplemented with foetal bovine serum (Moregate BioTech Ltd, Hamilton, New Zealand) (10% v/v), streptomycin sulphate (100 μg/ml) and penicillin-G (100 units/ml) (Sigma, St Louis, Mo., USA). Cells were added to a 24-well plate (Nunc, Kamstrup, Roskilde, Denmark) with LPS (Escherichia coli serotype 055:B5; Sigma, St. Louis, Mo., USA) plus thalidomide or CG at 0.04, 0.2, 1, 5, 25 & 100 μg/ml; or PG or PiG at 1, 5 & 25 μg/ml in a final volume of 1 ml. Wells containing cells only and cells plus LPS only were included as controls. After 12 hours of incubation, supernatants were removed and assayed immediately for TNF as described in section 4.\nas §1"}, "ECV304 cells [3]": {"tested_on": "ECV304 cells", "assay": "MTT cytotoxicity assay", "type": "cell-based, human", "settings": "18 h, 2-250/g/ml, vs untreated or DMSO-treated cultures", "experimental": "The 3-(4,5-dimethylthiazol-2-yl)-2,5-diphenyl tetrazolium bromide (MTT) assay, which measures mitochondrial metabolic activity, was used to determine cell viability (Mosmann, 1983). Cells (4×10^3/well) were cultured with various concentrations of thalidomide, CG, PG and PiG in a final volume of 100 μl M199 medium (Gibco, Grand Island, N.Y., USA) supplemented with 10% foetal bovine serum ([…] streptomycin sulphate and 100 units/ml penicillin-G (Sigma, St Louis, Calif., USA) in flat-bottomed 96-well plates at 37° C. at 5% CO2 for 18 h. At the end of the incubation period, 10 μl of MTT (Sigma, St. Louis, Mo., 5 mg/ml in PBS) was added to each well, and the cells were further incubated for 2 h. The supernatants were then removed and the formazan crystals in the cells were dissolved by the addition of 100 μl of DMSO per well, and the absorbance at 590 nm was read using a plate reader. Each concentration of drug was tested in triplicate wells, and the mean ±standard error of the mean (SEM) was calculated."}, "ECV304 cells [4]": {"tested_on": "ECV304 cells", "assay": "Inhibition of tube formation of ECV304 cells in Matrigel", "type": "cell-based, human", "experimental": "Each well in a 24-well plate was coated with 300 μl of Matrigel (Becton Dickinson, San Jose, Calif., USA) which was allowed to solidified at 37° C. for 1 h. […] After 15-18 h of incubation at 37° C. at 5% CO2, the culture supernatant was aspirated. The cells were fixed and stained using Diff-Quick staining kit (Dade AG, Dudingen, Switzerland) according to the manufacturer's instructions. After removal of the staining solution the stained cells in each well were photographed along with a measuring ruler placed at the bottom edge of the photographing field (Olympus Camedia C-5050 professional digital camera, Olympus Optical, Tokyo, Japan). The total length of the tubes formed in the photographs was measured and divided by the area of the field (mm/mm^2)."}, "Colon 38 tumours": {"tested_on": "Colon 38 tumours", "assay": "Tumour growth delay, Colon 38 tumours in mice, combination with DMXAA", "type": "in vivo", "settings": "for tumour volumes at 21 days after treatment compared with DMXAA alone: FIG. 2; for inhibition of tumour growth compared with DMXAA alone: 100 mg/kg i.p. co-administered with DMXAA 25 mg/kg, FIG. 1A", "excerpt": "Mice (C57B1/6 bred at the Animal Resources Unit, University of Auckland, New Zealand) were implanted with Colon 38 tumours, obtained originally from the Mason Research Institute (Auckland, New Zewaland) by transferring 1 mm^3 pieces of the tumour into a subcutaneous opening in the left flank of anaesthetized mice. The mice with tumours were used for growth delay experiments when tumours had reached approximately 3-5 mm in diameter. Mice were divided into 10 groups, an untreated control group, a group treated intraperitoneally (i.p.) with DMXAA (5,6-dimethylxanthenone-4-acetic acid, synthesized at the Auckland Cancer Society Research Centre—ACSRC (Auckland, New Zealand) at 25 mg/kg only, and 8 groups treated with DMXAA together with the hydrolytic thalidomide metabolites PG, PiG, CG also synthesized at the ACSRC as previously described (Lu et al, 2003), or thalidomide at 100 mg/kg, or together with CG or thalidomide at 20 mg/kg or 4 mg/kg. DMXAA was dissolved in saline at 2.5 mg/ml and injected i.p. into mice in a volume of 10 μl/g body weight. Thalidomide, PG, PiG and CG were dissolved in dimethylsulphoxide at 40, 8 or 1.6 mg/ml (for dosages of 100, 20, 4 mg/kg respectively) and injected i.p. in a volume of 2.5 μl/g body weight. Tumours were measured 2-3 times weekly after treatment and tumour volumes were calculated as 0.52×a^2×b, where a and b are the minor and major axes of the tumour. The arithmetic means and standard errors were calculated for each point, counting cured animals as having zero tumour volume, and expressed as fractions of the pre-treatment volume. Growth delay was determined as the difference in the number of days required for the tumour to reach four times the pre-treatment volume."}, "[5]": {"settings": "100 mg/kg co-administered with DMXAA 25 mg/kg, FIG. 3A"}, "[6]": {"settings": "100 mg/kg co-administered with DMXAA 25 mg/kg, FIG. 3B"}, "[7]": {"settings": "all concentrations tested, FIG. 6"}, "[8]": {"settings": "100 mg/kg co-administered with DMXAA 25 mg/kg"}},
  "data": [
    {"smiles": "Cc1ccc2c(=O)c3cccc(CC(=O)O)c3oc2c1C", "note": "[DMXAA, 5,6-dimethylxanthenone-4-acetic acid, reference compound]", "values": [
      {"measurement": "increase in serum TNF activity above control untreated mice", "setting": "TNF [1]; DMXAA alone 25 mg/kg, FIG. 3A", "result": 20, "unit": "fold"},
      {"measurement": "increase in tumour TNF activity above control untreated mice", "setting": "TNF [1]; DMXAA alone 25 mg/kg, FIG. 3B", "result": 50, "unit": "fold"}
    ]},
    {"smiles": "NC(=O)C(CCC(=O)O)N1C(=O)c2ccccc2C1=O", "note": "(stereo not shown) [PiG, 5-Amino-4-(1,3-dioxo-1,3-dihydro-2H-isoindol-2-yl)-5-oxopentanoic acid]", "values": [
      {"measurement": "effect on LPS-induced TNF production", "setting": "TNF [2]", "result": "no significant effect"},
      {"measurement": "toxicity (cell viability, MTT)", "setting": "ECV304 cells [3]", "result": "No toxicity was observed"},
      {"measurement": "effect on DMXAA-induced serum TNF level", "setting": "TNF [1]; [5]", "result": "had no effect"},
      {"measurement": "effect on DMXAA-induced tumour TNF level", "setting": "TNF [1]; [6]", "result": "had no effect"},
      {"measurement": "inhibition of tube formation", "setting": "ECV304 cells [4]; [7]", "result": "did not show any inhibition"},
      {"measurement": "tumour volumes at 21 days after treatment compared with DMXAA alone", "setting": "Colon 38 tumours; [8]", "result": "no significant difference in tumour volumes"},
      {"measurement": "inhibition of tumour growth compared with DMXAA alone", "setting": "Colon 38 tumours", "result": "did not inhibit tumour growth above that of DMXAA alone"}
    ]},
    {"smiles": "NC(=O)CCC(C(=O)O)N1C(=O)c2ccccc2C1=O", "note": "(stereo not shown) [PG, 5-Amino-2-(1,3-dioxo-1,3-dihydro-2H-isoindol-2-yl)-5-oxopentanoic acid]", "values": [
      {"measurement": "effect on LPS-induced TNF production", "setting": "TNF [2]", "result": "no significant effect"},
      {"measurement": "toxicity (cell viability, MTT)", "setting": "ECV304 cells [3]", "result": "No toxicity was observed"},
      {"measurement": "effect on DMXAA-induced serum TNF level", "setting": "TNF [1]; [5]", "result": "had no effect"},
      {"measurement": "effect on DMXAA-induced tumour TNF level", "setting": "TNF [1]; [6]", "result": "had no effect"},
      {"measurement": "inhibition of tube formation", "setting": "ECV304 cells [4]; [7]", "result": "did not show any inhibition"},
      {"measurement": "tumour volumes at 21 days after treatment compared with DMXAA alone", "setting": "Colon 38 tumours; [8]", "result": "no significant difference in tumour volumes"},
      {"measurement": "inhibition of tumour growth compared with DMXAA alone", "setting": "Colon 38 tumours", "result": "did not inhibit tumour growth above that of DMXAA alone"}
    ]},
    {"smiles": "O=C1CCC(N2C(=O)c3ccccc3C2=O)C(=O)N1", "note": "(stereo not drawn) [thalidomide, α-phthalimidoglutarimide]", "values": [
      {"measurement": "effect on LPS-induced TNF production", "setting": "TNF [2]", "result": "significantly decreased LPS-induced TNF levels in a dose-dependent manner"},
      {"measurement": "toxicity (cell viability, MTT)", "setting": "ECV304 cells [3]", "result": "No toxicity was observed"},
      {"measurement": "effect on DMXAA-induced serum TNF level", "setting": "TNF [1]; 20 mg/kg co-administered with DMXAA 25 mg/kg, FIG. 3A", "result": "reduced DMXAA-induced TNF levels in serum"},
      {"measurement": "effect on DMXAA-induced tumour TNF level", "setting": "TNF [1]; 20 mg/kg co-administered with DMXAA 25 mg/kg, FIG. 3B", "result": "no significant effect"},
      {"measurement": "effect on DMXAA-induced serum TNF level", "setting": "TNF [1]; [5]", "result": "reduced DMXAA-induced TNF levels in serum"},
      {"measurement": "effect on DMXAA-induced tumour TNF level", "setting": "TNF [1]; [6]", "result": "no significant effect"},
      {"measurement": "inhibition of tube formation", "setting": "ECV304 cells [4]; 250 μg/ml, FIGS. 6 & 7", "result": "Near complete inhibition"},
      {"measurement": "inhibition at 2 µg/mL", "setting": "ECV304 cells [4]; Homo sapiens, ECV-304, lowest concentration tested, 2 μg/ml, FIG. 7", "result": "38 to 41", "unit": "%"},
      {"measurement": "potentiation of DMXAA-induced anti-tumour effects", "setting": "Colon 38 tumours; 4 mg/kg co-administered with DMXAA 25 mg/kg, FIG. 1C", "result": "neither CG nor thalidomide showed potentiation"},
      {"measurement": "tumour volumes at 21 days after treatment compared with DMXAA alone", "setting": "Colon 38 tumours; 4 mg/kg co-administered with DMXAA 25 mg/kg", "result": "no significant difference"},
      {"measurement": "tumour volumes at 21 days after treatment compared with DMXAA alone", "setting": "Colon 38 tumours; [8]", "result": "significantly smaller tumour volumes than those treated by DMXAA alone"},
      {"measurement": "inhibition of tumour growth compared with DMXAA alone", "setting": "Colon 38 tumours", "result": "greater inhibition of tumour growth than that of DMXAA alone"}
    ]}
  ]
}
